The target of this assay is T1, RTCB (Homo sapiens, UniProt Q9Y3I0).
T1 construct: full length (505 residues), N-terminal His6 tag removed with TEV protease, expressed in Sf9 insect cells; model residues 3-505 with gaps
T1 sequence (Q9Y3I0 1-505): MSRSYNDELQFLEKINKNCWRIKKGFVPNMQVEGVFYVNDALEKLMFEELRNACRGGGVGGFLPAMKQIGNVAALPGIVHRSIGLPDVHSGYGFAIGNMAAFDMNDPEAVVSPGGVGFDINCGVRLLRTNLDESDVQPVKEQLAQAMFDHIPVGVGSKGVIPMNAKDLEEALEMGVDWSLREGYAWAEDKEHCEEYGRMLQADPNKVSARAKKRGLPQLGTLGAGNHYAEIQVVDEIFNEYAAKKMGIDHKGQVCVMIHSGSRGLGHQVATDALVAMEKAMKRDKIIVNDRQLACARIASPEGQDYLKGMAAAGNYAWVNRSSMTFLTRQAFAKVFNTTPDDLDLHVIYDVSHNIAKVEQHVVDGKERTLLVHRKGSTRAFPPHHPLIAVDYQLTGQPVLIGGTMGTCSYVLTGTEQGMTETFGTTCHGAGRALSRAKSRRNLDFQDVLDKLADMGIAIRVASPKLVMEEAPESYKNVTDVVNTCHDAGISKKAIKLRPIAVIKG
Put plainly: X-ray crystal structure, […] Å. Conditions: two Co2+ ions in active site, crystallised at pH 5.5, 20 °C, 5 mM CoCl2, 0.5 mM GMP, non-covalent product-bound state. The assay is classed as binding.

For the compound `Nc1nc2c(ncn2[C@@H]2O[C@H](COP(=O)(O)O)[C@@H](O)[C@H]2O)c(=O)[nH]1` [GMP], the “X-ray crystal structure, 2.3 Å” value is “crystal structure of human RTCB in complex with a GMP molecule and two divalent cobalt”.

Source of the values: paper PMC8668186, “Molecular architecture of the human tRNA ligase complex” (eLife, 2021).
